Each structure is given as a SMILES string. Read-outs that look alike come from different tables or passages of the source. Some results are limits rather than exact numbers.

The results in this text go back to US9061997B2, “Quinolinone derivatives” (Centre National de la Recherche Scientifique, priority 2010, dated 2015).

Assay [1] relates to C3H10T1/2 cells. The assay is described as follows: Enzymatic assay of alkaline phosphatase in 96-well plates (differentiation of C3H10T1/2 cells). The settings on record: for EC50 / Emax: Mus musculus. The format is cell-based. Here is the method: (§1) The effect of the compounds of general formula (I) in accordance with the invention on the stimulation of osteogenesis was determined in vitro by analyzing the differentiation of the C3H10T1/2 pluripotent mesenchymal cell line.
(§2) The test compounds of formula (I) were dissolved in dimethyl sulfoxide (DMSO) to a concentration of 2.5 mM, and then stored at a temperature of −20° C. until use.
(§3) The C3H10T1/2 pluripotent fibroblast cell line (ATCC CCL 226) was cultured under the conditions recommended by the ATCC in DMEM culture medium supplemented with 10% of fetal calf serum at a temperature of 37° C. under an atmosphere at 5% CO2. 24 hours after seeding, the cells were stimulated for 6 days in the presence of the compounds of general formula (I) directly diluted in the culture medium. The activation by these compounds causes differentiation of the cell line to the osteoblast lineage and enables the latter to express alkaline phosphatase. Said alkaline phosphatase is then detected by histochemistry or enzymatic assay.
The C3H10T1/2 cells were seeded onto 96-well plates at a density of 5×10^3 cells per well. The compounds were applied at increasing concentrations ranging from 10 nM to 10 μM. The plates were then incubated for 6 days and the assays were then carried out in quadruplicate according to the methods previously described (Chen et al. 2002; Frank-Kamenetsky et al. 2002).
The cells were washed in cold phosphate buffer (PBS) and then lysed by sonication at 4° C. in 50 μl of solution containing 0.9% of NaCl and 0.2% of Triton X-100. The alkaline phosphatase activity in the resulting lysates was then measured according to the method described by Pepinsky et al. (Pepinsky et al. 1998). After the addition of 100 μl of reaction buffer (200 mM Tris-HCl; pH 10.5; 0.4 M of 2-amino-2-methylpropanol and 8 mM of MgCl2) and of 50 μl of substrate (4 mM of disodium p-nitrophenyl phosphate), the lysates were incubated at 37° C. for 60 min, and then the optical density (OD) was measured at a wavelength of 415 nm. By way of comparison, the activity of the SAG compound, which activates osteogenesis by acting on the Hedgehog pathway, was tested under the same conditions. The GraphPad Prism 4° software was used to plot the curves and to determine the effective concentrations 50 (EC50).

For assay [2], the system named is C3H10T1/2 cells. The assay is described as follows: Detection of alkaline phosphatase by histochemistry (differentiation of C3H10T1/2 cells). The format is cell-based. The settings on record: 10 μM, 6 days; intensities compound 4>compound 1>compound 8>compound 6; no DMSO-treated cell labeled. Here is the method: as §1, §2, §3
For this experiment, the cells are cultured in 6-well plates containing a glass cover slip treated for 1H with 0.05 mg/ml poly-D-lysine. The C3H10T1/2 cells are seeded at a density of 150 000 cells per well. The compounds were applied at a concentration of 10 μM. the Sigma staining kit (85L-3R) was used according to the protocol described. Briefly, after fixing the cells for 30 seconds with a solution of citrate/acetone (2-3) and then rinsing with double-distilled water, the staining is carried out for 30 min in the presence of a solution of Fast-Violet/Naphthol in the dark. The cover slips are then rinsed thoroughly with double-distilled water and then mounted in aqueous medium before being photographed on a DMRXA2 microscope (Leica Microsystems). The cells expressing alkaline phosphatase are stained red.

Where [3] appears, read: C3H 10T1/2, 144 h, 6 days of stimulation, 10 nM to 10 μM, OD 415 nm, mean of 2 to 5 independent experiments, read-out: EC50 on the differentiation of C3H10T1/2 cells measured via alkaline phosphatase activity.
Where [4] appears, read: C3H 10T1/2, 144 h, 6 days of stimulation, relative to compound 1 in the same experiment, mean of 2 to 5 independent experiments, read-out: Maximum stimulation, % of maximum activation of compound 1.
The mark [5] stands for this setting: dose-response curve produced in parallel with compound 1.

For the compound `CCCCCCn1c(=O)c(C(=O)Nc2ccc(C(=O)O)cc2)c(O)c2ccccc21` [Compound 4, 4-(1-hexyl-4-hydroxy-2-oxo-1,2-dihydroquinoline-3-carboxamido)benzoic acid], the EC50 turned out to be 600 nM in the assay on C3H10T1/2 cells [1] (setting [3]) and 600 nM in the assay on C3H10T1/2 cells [1] (C3H 10T1/2, 144 h, 6 days of stimulation, alkaline phosphatase activity, read-out: Affinity (activation of C3H10T1/2 cell differentiation)). The Emax in the assay with C3H10T1/2 cells [1] (setting [4]) was determined as 124%; with C3H10T1/2 cells [1] (C3H 10T1/2, excess over compound 1, read-out: Maximum stimulation greater than that of compound 1), 20%. Also, the “Expression of alkaline phosphatase detected by histochemical staining (number of cells labeled)” value (shortened to “Expression”) in the assay on C3H10T1/2 cells [2] was “increase in the number of cells labeled”.

As for `CCOC(=O)c1ccc(NC(=O)c2c(O)c3ccccc3n(Cc3ccccc3)c2=O)cc1` [Compound 2, ethyl 4-(1-benzyl-4-hydroxy-2-oxo-1,2-dihydroquinoline-3-carboxamido)benzoate], the EC50 in the assay on C3H10T1/2 cells [1] (setting [3]) was over 3000 nM. Also, in the assay on C3H10T1/2 cells [1] (setting [4]), the Emax came to 4%.

With `CCCCCCn1c(=O)c(C(=O)Nc2ccc(C(=O)OC(C)C)cc2)c(O)c2ccccc21` [Compound 9, isopropyl 4-(1-hexyl-4-hydroxy-2-oxo-1,2-dihydroquinoline-3-carboxamido)benzoate], in the assay on C3H10T1/2 cells [1] (setting [3]), the EC50 turned out to be 6500 nM. In the assay with C3H10T1/2 cells [1] (setting [4]), the Emax turned out to be 33%.

Regarding `CCCCCCn1c(=O)c(C(=O)Nc2ccc(C(=O)OCCC)cc2)c(O)c2ccccc21` [Compound 1, propyl 4-(1-hexyl-4-hydroxy-2-oxo-1,2-dihydroquinoline-3-carboxamido)benzoate], the EC50 in the assay on C3H10T1/2 cells [1] (setting [3]) was 1300 nM. For the same compound, the Emax in the assay on C3H10T1/2 cells [1] (setting [4]) amounted to 100%. Further, the “Expression” value in the assay on C3H10T1/2 cells [2] is on record as “increase in the number of cells labeled”.

As to `CCCCCCn1c(=O)c(C(=O)Nc2ccc(C(=O)OCC)cc2)c(O)c2ccccc21` [Compound 3, ethyl 4-(1-hexyl-4-hydroxy-2-oxo-1,2-dihydroquinoline-3-carboxamido)benzoate], the EC50 in the assay on C3H10T1/2 cells [1] (setting [3]) was 3600 nM. In addition, the Emax with C3H10T1/2 cells [1] (setting [4]) was determined as 66%.

Regarding `CCCCCCn1c(=O)c(C(=O)Nc2ccc(C(=O)OC(C)(C)C)cc2)c(O)c2ccccc21` [Compound 6, tert-butyl 4-(1-hexyl-4-hydroxy-2-oxo-1,2-dihydroquinoline-3-carboxamido)benzoate], the EC50 in the assay with C3H10T1/2 cells [1] (setting [3]) was 3100 nM. Besides, the Emax with C3H10T1/2 cells [1] (setting [4]) was 62%. Moreover, the “Expression” value in the assay on C3H10T1/2 cells [2] is reported as “increase in the number of cells labeled”.

Consider `CCCCCCn1c(=O)c(C(=O)Nc2ccc(C(=O)OCc3ccccc3)cc2)c(O)c2ccccc21` [Compound 7, benzyl 4-(1-hexyl-4-hydroxy-2-oxo-1,2-dihydroquinoline-3-carboxamido)benzoate], for which the EC50 in the assay on C3H10T1/2 cells [1] (setting [3]) stood at 2000 nM. In addition, the Emax in the assay on C3H10T1/2 cells [1] (setting [4]) stood at 47%.

For the compound `CNC1CCC(N(Cc2cccc(-c3ccncc3)c2)C(=O)c2sc3ccccc3c2Cl)CC1` (centres unmarked) [SAG, reference compound], in the assay on C3H10T1/2 cells [1] (setting [5]), the “Affinity compared with compound 1 (FIG. 3)” value is “similar” and the “Maximum stimulation compared with compound 1 (FIG. 3)” value is given as “lower maximum stimulation than compound 1”.

Turning to `CCCCCCn1c(=O)c(C(=O)Nc2ccc(C(=O)OCCCC)cc2)c(O)c2ccccc21` [Compound 5, butyl 4-(1-hexyl-4-hydroxy-2-oxo-1,2-dihydroquinoline-3-carboxamido)benzoate], the EC50 in the assay with C3H10T1/2 cells [1] (setting [3]) came out at 1500 nM. Further, in the assay with C3H10T1/2 cells [1] (setting [4]), the Emax was 91%.

On to `CCCCCCn1c(=O)c(C(=O)Nc2ccc(C(=O)NCCCC)cc2)c(O)c2ccccc21` [Compound 8, N-(4-(butylcarbamoyl)phenyl)-1-hexyl-4-hydroxy-2-oxo-1,2-dihydroquinoline-3-carboxamide], for which the EC50 in the assay with C3H10T1/2 cells [1] (setting [3]) worked out at 5800 nM. The Emax with C3H10T1/2 cells [1] (setting [4]) was 94%. Moreover, in the assay with C3H10T1/2 cells [2], the “Expression” value is “increase in the number of cells labeled”.
